Assay: Clinical Example 1: pharmacokinetic assessments
Format: in vivo, human
Conditions: plasma, noncompartmental PK analysis
Protocol: At Visit 3 (a minimum of 3 days after Visit 2), a subset of approximately 35 subjects who qualified at Visit 2 were randomized and began PK blood draws in the clinic that occurred over 24 hours for placebo, 2%, 4%, or 6% dosages of bepotastine besilate (using a randomization ratio of 1:1:1:1). There were approximately nine subjects in each of the four treatment groups. Blood sampling for PK assessments was drawn within 90 minutes (pre-dose). Subjects were dosed and additional blood samples were collected at 10, 20, 30, and 45 minutes post-dose and at 1, 1.25, 2, 3, 4, 6, 10, and 12 hours post-dose while remaining in the clinic. Subjects returned the next day for a 24 hour post-dose PK blood draw. PK blood draws at 1, 1.25, 2, 3, 4, 6, 10, and 12 hours post-dose were within a ±1 minute window and at 24 hours post dose were within a ±60 minute window.
All subjects who qualified at Visit 2 returned to the clinic for Visit 4 following a minimum ten day washout period. At Visit 4, subjects recorded individual nasal and ocular symptoms on 0-3 unit scales prior to entering the EEC and every 30 minutes for the first two hours while in the EEC, including just prior to dosing. […] At the end of Visit 4, subjects recorded reflective nasal symptom scores, summarizing their subjective opinion of each nasal and ocular symptom score (same 0-3 unit scales), over the entire post-dosing period in the EEC. […]

absorption from the nasal sprays: absorbed quickly | half-life: short
SMILES: O=C(O)CCCN1CCC(O[C@@H](c2ccc(Cl)cc2)c2ccccn2)CC1 [bepotastine, (+)-(S)-4-[4-[(4-chlorophenyl)(2-pyridyl)methoxy]piperidino]butyric acid]

From patent US20120225905A1, “BEPOTASTINE COMPOSITIONS” (Mitsubishi Tanabe Pharma Corporation, priority 2010, published 2012)
